Among the test systems are EKVX; HCC 2998; HCT-15; HL-60; HOP-92; HT-29; IGROV-1; KM12; MDA-MB-435; Malme-3M; NCI-H23; OVCAR-5; RXF 393; SF-268; SF-295; SK-MEL-5; SNB-75; UACC-257; UO-31; RPMI-8226.
What all share (assay): NCI tumour cell line growth inhibition, 48 h

The record followed here is ChEMBL document CHEMBL1201862, “PubChem BioAssay data set” (2004).

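In this assay, cells in 96-well plates receive the compound at five concentrations for 48 hours. Endpoints are linearly interpolated between the surrounding concentrations. GI50 is the concentration that inhibits growth by half.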 The source made the active and inactive calls. Cut-off read from the data, not from the text of the source: active = GI50 up to about 1.1 µM and inactive = higher. Where only a bound is given, the exact number is not on record here.

Turning to `COc1cc(S(=O)(=O)Nc2nc(-c3ccc(/N=C/c4ccccc4O)cc3)cs2)ccc1Cl`, the GI50 with EKVX is 23.4 µM (inactive); with HCC 2998 it was 45.5 µM (inactive); in the experiment on HCT-15, 31.6 µM; in the experiment with HL-60, 35.6 µM (inactive); in the experiment on HOP-92, 29 µM (inactive); in the experiment with HT-29, 44 µM (inactive). Further, the GI50 was 31.4 µM (inactive) with IGROV-1; 53.8 µM (inactive) in the experiment with KM12; 54.5 µM (inactive) in the experiment on MDA-MB-435; 40.3 µM (inactive) in the experiment on Malme-3M; 36.3 µM (inactive) in the experiment on NCI-H23; > 100 µM (inactive) in the experiment with OVCAR-5. The GI50 with RXF 393 was 34.3 µM (inactive); in the experiment on SF-268, 32 µM (inactive); in the experiment with SF-295, 36 µM (inactive); with SK-MEL-5 it was 26 µM (inactive); in the experiment with SNB-75 it was 51.1 µM (inactive); with UACC-257 it was 35.9 µM (inactive). Further, the GI50 in the experiment on UO-31 was 44.2 µM (inactive).

Consider `COP(=O)(OC)/C(=C/c1cn(C(c2ccccc2)(c2ccccc2)c2ccccc2)cn1)NC=O`, for which the GI50 with EKVX is 22 µM (inactive); in the experiment on HCC 2998, 16.7 µM (inactive); with HCT-15, 25.6 µM; in the experiment on HL-60, > 100 µM (inactive); in the experiment with HOP-92, 18 µM (inactive); with HT-29, 16.4 µM (inactive). Besides, the GI50 is 20.5 µM (inactive) in the experiment on IGROV-1; 32.9 µM (inactive) in the experiment with KM12; 18.1 µM (inactive) in the experiment on MDA-MB-435; 18.6 µM (inactive) in the experiment on Malme-3M; 19.5 µM (inactive) in the experiment on NCI-H23; 20.6 µM (inactive) in the experiment with OVCAR-5. Further, the GI50 is 32 µM (inactive) in the experiment with RPMI-8226; 16.3 µM (inactive) with RXF 393; 14.5 µM (inactive) in the experiment with SF-268; 13.8 µM (inactive) in the experiment on SF-295; 13.7 µM (inactive) in the experiment on SK-MEL-5; 5.92 µM (inactive) with SNB-75. Further, in the experiment on UO-31, the GI50 is 12.9 µM (inactive).

For `COc1cc2oc(=O)ccc2cc1C1OC(=O)C2OC21C` (stereo unspecified), the GI50 in the experiment with EKVX is > 100 µM (inactive); with HCC 2998 it was > 100 µM (inactive); with HCT-15, over 100 µM; with HL-60, > 100 µM (inactive); in the experiment on HOP-92, > 100 µM (inactive); in the experiment on HT-29 it was > 100 µM (inactive). For the same compound, the GI50 with IGROV-1, with KM12, in the experiment on MDA-MB-435, with Malme-3M, in the experiment with NCI-H23 and with OVCAR-5 was > 100 µM (inactive) each time. Further, the GI50 in the experiment with RPMI-8226, with RXF 393, with SF-268, in the experiment with SF-295, in the experiment with SK-MEL-5 and in the experiment on SNB-75 was > 100 µM (inactive) throughout. The GI50 in the experiment with UACC-257 was > 100 µM (inactive); in the experiment with UO-31, 64.9 µM (inactive).

`CC(C)(C)c1ccc(-n2c3nc(=O)n(-c4ccccc4C(F)(F)F)c(=O)c-3cc3ccccc32)cc1`: the GI50 in the experiment with EKVX was 18.6 µM (inactive); in the experiment on HCC 2998 it was 14.2 µM (inactive); in the experiment with HCT-15 it was 12.3 µM; in the experiment on HL-60, 9.77 µM (inactive); with HOP-92, 18.1 µM (inactive); in the experiment with HT-29, 8.32 µM (inactive). The GI50 is 29.1 µM (inactive) with IGROV-1; 16.2 µM (inactive) in the experiment on KM12; 15.6 µM (inactive) in the experiment with MDA-MB-435; 32.3 µM (inactive) in the experiment on NCI-H23; 20.2 µM (inactive) with OVCAR-5; 24.2 µM (inactive) in the experiment with RXF 393. The GI50 in the experiment on SF-268 is 30.5 µM (inactive); in the experiment on SF-295, 19 µM (inactive); in the experiment with SK-MEL-5, 15 µM (inactive); in the experiment on SNB-75 it was 15.6 µM (inactive); in the experiment on UACC-257 it was 19.6 µM (inactive); in the experiment on UO-31, 20.7 µM (inactive).

As to `CC(=O)CC(OC(C)=O)C1=CCC2C(CC1C)OC(=O)C2C` (stereo unspecified), the GI50 in the experiment on EKVX was > 100 µM (inactive); in the experiment on HCC 2998, > 100 µM (inactive); in the experiment on HCT-15 it was over 100 µM; with HL-60, 40.6 µM (inactive); with HOP-92, > 100 µM (inactive); in the experiment with HT-29, > 100 µM (inactive). In addition, the GI50 with IGROV-1, in the experiment on KM12, with MDA-MB-435, with Malme-3M, in the experiment with NCI-H23 and in the experiment on OVCAR-5 was > 100 µM (inactive) each time. The GI50 in the experiment with RPMI-8226, in the experiment with RXF 393, with SF-268, with SF-295, in the experiment on SK-MEL-5 and with SNB-75 was > 100 µM (inactive) each time. The GI50 in the experiment with UACC-257 is > 100 µM (inactive).

Take `O=C(OCC(OC(=O)c1ccccc1)C1CC(C(O)C2CCCCC2)C(=O)O1)c1ccccc1` (stereo unspecified): the GI50 in the experiment with EKVX is > 100 µM (inactive); with HCC 2998 it was 47.9 µM (inactive); in the experiment with HCT-15, 43.2 µM; with HL-60 it was 16.4 µM (inactive); with HOP-92 it was > 100 µM (inactive); in the experiment with IGROV-1, 32.2 µM (inactive). Further, the GI50 in the experiment with KM12 was 41.8 µM (inactive); with MDA-MB-435, > 100 µM (inactive); in the experiment on NCI-H23 it was > 100 µM (inactive); in the experiment on OVCAR-5, > 100 µM (inactive); in the experiment with RPMI-8226, 24.2 µM (inactive); in the experiment on RXF 393 it was > 100 µM (inactive). Also, the GI50 was 91.8 µM (inactive) in the experiment on SF-268; 86.7 µM (inactive) in the experiment on SF-295; 17.3 µM (inactive) with SK-MEL-5; 51.4 µM (inactive) in the experiment with SNB-75; > 100 µM (inactive) with UACC-257; > 100 µM (inactive) in the experiment on UO-31.

`COc1ccc2nccc(NCCCN3CCN(CCCNc4ccnc5ccc(OC)cc45)CC3)c2c1`: the GI50 with EKVX is 1.34 µM (inactive); in the experiment with HCC 2998 it was 0.505 µM (active); with HCT-15, 11.8 µM; in the experiment with HL-60, 0.0953 µM (active); in the experiment with HOP-92 it was 0.226 µM (active); with HT-29, 0.172 µM (active). For the same compound, the GI50 in the experiment on IGROV-1 is 0.283 µM (active); in the experiment on KM12 it was 0.357 µM (active); in the experiment with MDA-MB-435 it was 0.427 µM (active); in the experiment with Malme-3M, 0.644 µM (active); in the experiment with NCI-H23 it was 0.51 µM (active); in the experiment on OVCAR-5, 0.826 µM (active). The GI50 was 0.264 µM (active) in the experiment on RPMI-8226; 1.32 µM (inactive) in the experiment on RXF 393; 0.432 µM (active) in the experiment on SF-268; 0.975 µM (active) in the experiment on SF-295; 1.06 µM (active) in the experiment with SK-MEL-5; 0.543 µM (active) in the experiment on SNB-75. Further, the figures for the GI50 in the experiment with UACC-257 and with UO-31 were 1.04 µM (active) and 8.13 µM (inactive), respectively.

In the case of `O=C1Nc2cccc(Cl)c2/C1=C\c1c(Cl)nc2n1CCS2`, the GI50 was 84.7 µM (inactive) in the experiment with EKVX; > 100 µM (inactive) in the experiment with HCC 2998; 96.6 µM in the experiment on HCT-15; > 100 µM (inactive) in the experiment on HL-60; 56.9 µM (inactive) with HOP-92; > 100 µM (inactive) in the experiment on HT-29. Also, the GI50 in the experiment with IGROV-1 was > 100 µM (inactive); in the experiment on KM12 it was > 100 µM (inactive); in the experiment with MDA-MB-435, 35.1 µM (inactive); in the experiment on Malme-3M it was > 100 µM (inactive); in the experiment with NCI-H23, > 100 µM (inactive); with OVCAR-5, > 100 µM (inactive). The GI50 was > 100 µM (inactive) with RPMI-8226; 53.2 µM (inactive) with RXF 393; > 100 µM (inactive) with SF-268; > 100 µM (inactive) with SF-295; > 100 µM (inactive) with SK-MEL-5; > 100 µM (inactive) in the experiment with SNB-75. For the same compound, the GI50 in the experiment with UACC-257 and in the experiment on UO-31 was > 100 µM (inactive) each time.

Take `CC(C)(C)C1CC[C@H](O)[C@H]([C@H](O)CC2CC(=O)N(c3ccccc3)C(=O)C2)C1` (stereo partly specified): the GI50 with EKVX was > 100 µM (inactive); in the experiment on HCC 2998, > 100 µM (inactive); with HCT-15 it was over 100 µM; in the experiment with HL-60 it was > 100 µM (inactive); in the experiment with HOP-92 it was 36.1 µM (inactive); with HT-29 it was > 100 µM (inactive). The GI50 is > 100 µM (inactive) in the experiment on IGROV-1; > 100 µM (inactive) in the experiment on KM12; > 100 µM (inactive) with MDA-MB-435; > 100 µM (inactive) in the experiment with Malme-3M; 91.6 µM (inactive) in the experiment with NCI-H23; > 100 µM (inactive) in the experiment with OVCAR-5. Besides, the GI50 is > 100 µM (inactive) in the experiment with RXF 393; > 100 µM (inactive) in the experiment with SF-268; 63.7 µM (inactive) in the experiment on SF-295; > 100 µM (inactive) in the experiment with SK-MEL-5; > 100 µM (inactive) in the experiment on SNB-75; > 100 µM (inactive) in the experiment on UACC-257. Also, the GI50 in the experiment with UO-31 was > 100 µM (inactive).

`CNC(=O)OCc1c(COC(=O)NC)c(-c2ccc(Cl)c(Cl)c2)n2c1SCC2`: the GI50 with EKVX was 19.8 µM (inactive); in the experiment on HCC 2998 it was 19.7 µM (inactive); with HCT-15, 13 µM; in the experiment with HL-60, 7.29 µM (inactive); with HOP-92, 10.6 µM (inactive); with HT-29, 10 µM (inactive). Further, the GI50 with KM12 is 17.5 µM (inactive); in the experiment on MDA-MB-435, 18 µM (inactive); in the experiment on Malme-3M it was 22.7 µM (inactive); in the experiment on NCI-H23, 21 µM (inactive); in the experiment with OVCAR-5, 4.06 µM (inactive); in the experiment on RPMI-8226 it was 12.2 µM (inactive). The GI50 in the experiment on RXF 393 is 3.31 µM (inactive); in the experiment on SF-268, 13.3 µM (inactive); in the experiment on SF-295, 13.6 µM (inactive); with SK-MEL-5, 13.5 µM (inactive); in the experiment on SNB-75, 8.77 µM (inactive); in the experiment with UACC-257, 10.4 µM (inactive). For the same compound, in the experiment with UO-31, the GI50 was 7.46 µM (inactive).
